Reference: article PMC8158513, “Bio-Distribution and Pharmacokinetics of Topically Administered γ-Cyclodextrin Based Eye Drops in Rabbits” (Pharmaceuticals, 2021)

What was measured:
[1] = Single-dose ocular bio-distribution and pharmacokinetics of topical γCD based eye drops (LC-MS/MS of ocular tissues); details: for Cmax / Tmax: topical or ocular
Experimental: (§1) A total number of 59 rabbits were included in this part of the study. All rabbits were consecutively assigned to one of the two study groups. […] Group 2 animals were dosed with 0.15% candesartan eye drops, while 23 rabbits received a single dose and 5 rabbits received multiple doses of the eye drops. Single dose rabbits of both groups were additionally randomized to one of five euthanasia time points: 0.5 h ± 5 min, 1.5 h ± 5 min, 3 h ± 10 min, 6 h ± 15 min or 12 h ± 30 min after instillation. In all animals, 35 μL of the study drug were instilled in the conjunctival sac of the right eye with a calibrated pipette using single-use dispensers. Single dose animals were instilled only once while multiple dose animals were instilled twice daily for a total of 5 days. In all animals only the right eye was treated. To assess drug concentrations, eyes were enucleated at the end of the study period. Before enucleation, rabbits were euthanized in deep anesthesia (ketamine 60 mg/kg, xylazine 16 mg/kg, s.c.) by an intravenous over-dose of pentobarbitone sodium (300 mg/kg i.v.) and enucleation was performed immediately after euthanasia. Single dose animals were enucleated at one of the five specified time-points. Multiple dose animals were euthanized 1 h ± 30 min after the last drug administration. From each animal both eyes were enucleated and stored at −80 °C. For separation of the different ocular tissues, the eyeball was removed from −80 °C storage and corneal tissue, aqueous humor, vitreous humor and retinal/choroidal tissue were dissected. The tissues were collected separately in individual tubes, which were weighed and then stored at −80 °C.
(§2) Both, the eye-tissue and plasma samples were shipped to Nucro-Technics (Nucro-Technics, 2000 Ellesmere Road, Unit #16, Scarborough, ON, Canada) for quantitative analysis. For this purpose, a new liquid chromatography/tandem mass spectrometry method for simultaneous quantification of candesartan and irbesartan in rabbit eye tissues including cornea, aqueous humor, vitreous body and retina was developed. The exact method and validation are described in detail elsewhere.
(§3) This study was designed to assess pharmacokinetics and local tolerability, no formal sample size calculation has been performed. Descriptive statistics was used for all quantitative data to describe drug concentrations after the single and multiple dosing in the different tissues. […] For pharmacokinetic calculations Phoenix WinNonlin 8.1 (Certara, Princeton, NJ, USA) was used, and the statistical analysis was done using CSS Statistica 6.0 (Tulsa, OK, USA).
(§4) To facilitate calculation of the PK parameters, a plausibility check was performed and values below the lower limit of quantification (BLOQ; plasma: <0.05 ng/mL; tissue: <5 ng/g (irbesartan), <2 ng/g (candesartan)) were set to 0. […] All baseline plasma sample values were set to zero.

[2] = Pre-formulation studies (γCD complexation, physicochemical parameters)
Experimental: Pre-formulation studies with different candesartan (0.1–0.2%) and irbesartan (1.0–2.0%) concentrations were performed to find the optimal drug concentration for the animal experiments.

[3] = Blood-plasma PK after topical eye drop administration; details: for concentration at 6 h: Plasma concentration at 6 h
Experimental: as §1
A venous blood sample of 2 mL was collected from the saphenous vein before the (first) drug administration and prior to euthanasia to determine systemic drug exposure at baseline and after drug administration. The blood was centrifuged for 10 min at a temperature of 10 °C and a speed of 3000 rpm. The resulting supernatant was separated and stored in a tube at −80 °C until further processing.
as §2, §3, §4

[4] = Multiple-dose ocular bio-distribution (twice daily for 5 days, tissues 1 h after last dose); details: New Zealand White, rabbit, topical, 35 µL
Experimental: as §1, with “Single dose animals were enucleated at one of the five specified time-points. Multiple dose animals were euthanized 1 h ± 30 min after the last drug administration. From each animal both eyes were enucleated and stored at −80 °C. For separation of the different ocular tissues, the eyeball was removed from −80 °C storage and corneal tissue, aqueous humor, vitreous humor and retinal/choroidal tissue were dissected. The tissues were collected separately in individual tubes, which were weighed and then stored at −80 °C.” left out
Both, the eye-tissue and plasma samples were shipped to Nucro-Technics (Nucro-Technics, 2000 Ellesmere Road, Unit #16, Scarborough, ON, Canada) for quantitative analysis. For this purpose, a new liquid chromatography/tandem mass spectrometry method for simultaneous quantification of candesartan and irbesartan in rabbit eye tissues including cornea, aqueous humor, vitreous body and retina was developed. […]
This study was designed to assess pharmacokinetics and local tolerability, no formal sample size calculation has been performed. Descriptive statistics was used for all quantitative data to describe drug concentrations after the single and multiple dosing in the different tissues. […]
To facilitate calculation of the PK parameters, a plausibility check was performed and values below the lower limit of quantification (BLOQ; plasma: <0.05 ng/mL; tissue: <5 ng/g (irbesartan), <2 ng/g (candesartan)) were set to 0. […]

[5] = molecular target: angiotensin II receptor (AT1 subtype); details: cited from earlier work
[6] = New Zealand White, rabbit, plasma, topical or ocular, 35 µL
[7] = New Zealand White, rabbit, in vivo
[8] = New Zealand White, rabbit, in vivo, topical or ocular

CCOc1nc2cccc(C(=O)O)c2n1Cc1ccc(-c2ccccc2-c2nnn[nH]2)cc1 [candesartan]
Cmax ([1]; New Zealand White, rabbit, aqueous humor, treated study eye, 35 µL, Cmax SE, aqueous humor (AH), single dose, study eye, mean ± SD, also published separately [20]): 30 ± 14 ng/g
Tmax ([1]; New Zealand White, rabbit, aqueous humor, treated study eye, 35 µL, Tmax SE, aqueous humor (AH), single dose, study eye, also published separately [20]): 180 min
Cmax ([1]; New Zealand White, rabbit, aqueous humor, untreated control eye, 35 µL, Cmax CE, aqueous humor (AH), single dose, control eye, also published separately [20]): < 2 ng/g
Cmax ([1]; New Zealand White, rabbit, corneal tissue, treated study eye, 35 µL, Cmax SE, corneal tissue (CT), single dose, study eye, mean ± SD, also published separately [20]): 3500 ± 801 ng/g
Tmax ([1]; New Zealand White, rabbit, corneal tissue, treated study eye, 35 µL, Tmax SE, corneal tissue (CT), single dose, study eye, also published separately [20]): 90 min
Cmax ([1]; New Zealand White, rabbit, corneal tissue, untreated control eye, 35 µL, Cmax CE, corneal tissue (CT), single dose, control eye, mean ± SD, also published separately [20]): 2 ± 4 ng/g
Tmax ([1]; New Zealand White, rabbit, corneal tissue, untreated control eye, 35 µL, Tmax CE, corneal tissue (CT), single dose, control eye, also published separately [20]): 30 min
Cmax ([1]; New Zealand White, rabbit, retinal tissue, 35 µL, Retinal tissue single dose Cmax in molar units, single dose, assuming molar weight 428.54 g/mol irbesartan, 440.45 g/mol candesartan): 144 nM
Cmax ([1]; New Zealand White, rabbit, retinal/choroidal tissue, treated study eye, 35 µL, Cmax SE, retinal(choroidal) tissue (RT), single dose 35 μL topical, mean ± SD): 63 ± 39 ng/g
Tmax ([1]; New Zealand White, rabbit, retinal/choroidal tissue, treated study eye, 35 µL, Tmax SE, retinal tissue (RT), single dose, study eye): ≤ 30 min
half-life ([1]; New Zealand White, rabbit, retinal/choroidal tissue, treated study eye, topical, 35 µL): 323 min
Cmax ([1]; New Zealand White, rabbit, retinal/choroidal tissue, untreated control eye, 35 µL, Cmax CE, retinal tissue (RT), single dose, mean ± SD): < 2 ng/g
Tmax ([1]; New Zealand White, rabbit, retinal/choroidal tissue, untreated control eye, 35 µL, Tmax CE, retinal tissue (RT), single dose, control eye): 30 min
Cmax ([1]; New Zealand White, rabbit, vitreous humor, treated study eye, 35 µL, Cmax SE, vitreous humor (VH), single dose, study eye, mean ± SD): < 2 ng/g
Tmax ([1]; New Zealand White, rabbit, vitreous humor, treated study eye, 35 µL, Tmax SE, vitreous humor (VH), single dose, study eye): 30 min
Cmax ([1]; New Zealand White, rabbit, vitreous humor, untreated control eye, 35 µL, Cmax CE, vitreous humor (VH), single dose, control eye): < 2 ng/g
Cmax CE, vitreous humor (VH) ([1]; single dose, control eye): below the respective lower quantification limit
Time of maximum retinal drug concentration after single administration ([1]; single dose, retina): 30 min
Retinal tissue AUC ([1]; single dose, study eye, AUC 0 h-12 h): 210 ng·h/g
Cmax SE, vitreous humor (VH) ([1]; single dose, study eye, mean ± SD): <2 ng/g
Complexing efficiency of the γCD complex ([2]; compared with irbesartan): lower
Cmax [3, 6]: 4.32 ± 1.04 ng/mL
Tmax [3, 6]: 30 min
half-life [3, 6]: 584 min
concentration at 1 h after last dose ([3]; New Zealand White, rabbit, plasma, topical, 35 µL, Mean plasma levels (Cmean) after the last dose, multiple doses twice daily for 5 days): 4.78 ± 1.48 ng/mL
Plasma AUC ([3]; single topical administration, AUC 0 h-12 h): 8.75 (ng/mL)*h
concentration at 1 h after last dose ([4]; retinal tissue, Retinal tissue Cmean in molar units, multiple dose, assuming molar weight 428.54 g/mol irbesartan, 440.45 g/mol candesartan): 82 nM
concentration at 1 h after last dose ([4]; retinal/choroidal tissue, treated study eye, Cmean retinal tissue (RT), SE, multiple doses twice daily 5 days, 1 h ± 30 min after last dose, study eye, mean ± SD): 36 ± 10 ng/g
concentration at 1 h after last dose ([4]; vitreous humor, treated study eye, Cmean vitreous humor (VH), SE, multiple doses, 1 h after last dose, study eye): < 2 ng/g
IC50 [5]: 0.4 nM

CCCCC1=NC2(CCCC2)C(=O)N1Cc1ccc(-c2ccccc2-c2nnn[nH]2)cc1 [irbesartan]
Retinal tissue AUC [1, 7]: 941 ng·h/g
Retinal tissue AUC relative to the corresponding candesartan AUC [1, 7]: around 4.5 times
Time of maximum retinal drug concentration after single administration [1, 7]: 30 min
concentration at 0.5 h [1, 7]: 14 ± 16 ng/g
half-life [1, 7]: 199 min
Cmax ([1]; New Zealand White, rabbit, in vivo, Cmax CE, aqueous humor (AH)): < 5 ng/g
Cmax ([1]; New Zealand White, rabbit, in vivo, Cmax CE, corneal tissue (CT)): 49 ± 85 ng/g
Cmax ([1]; New Zealand White, rabbit, in vivo, Cmax CE, retinal tissue (RT)): 23 ± 34 ng/g
Cmax ([1]; New Zealand White, rabbit, in vivo, Cmax CE, vitreous humor (VH)): < 5 ng/g
Cmax ([1]; New Zealand White, rabbit, in vivo, Cmax SE, aqueous humor (AH)): 121 ± 69 ng/g
Cmax ([1]; New Zealand White, rabbit, in vivo, Cmax SE, corneal tissue (CT)): 3660 ± 988 ng/g
Cmax ([1]; New Zealand White, rabbit, in vivo, Cmax SE, retinal(choroidal) tissue (RT)): 251 ± 142 ng/g
Cmax ([1]; New Zealand White, rabbit, in vivo, Cmax SE, vitreous humor (VH)): 14 ± 16 ng/g
Tmax ([1]; New Zealand White, rabbit, in vivo, Tmax CE, aqueous humor (AH)): 30 min
Tmax ([1]; New Zealand White, rabbit, in vivo, Tmax CE, corneal tissue (CT)): 90 min
Tmax ([1]; New Zealand White, rabbit, in vivo, Tmax CE, retinal tissue (RT)): 30 min
Tmax ([1]; New Zealand White, rabbit, in vivo, Tmax CE, vitreous humor (VH)): 30 min
Tmax ([1]; New Zealand White, rabbit, in vivo, Tmax SE, aqueous humor (AH)): 180 min
Tmax ([1]; New Zealand White, rabbit, in vivo, Tmax SE, corneal tissue (CT)): 90 min
Tmax ([1]; New Zealand White, rabbit, in vivo, Tmax SE, retinal tissue (RT)): ≤ 30 min
Tmax ([1]; New Zealand White, rabbit, in vivo, Tmax SE, vitreous humor (VH)): 30 min
Cmax CE, vitreous humor (VH) ([1]; rabbit, in vivo): below the respective lower quantification limit
Affinity for the γCD cavity ([2]; among telmisartan, olmesartan, irbesartan and candesartan): highest affinity
concentration at 6 h ([3]; New Zealand White, rabbit, in vivo, mean of the other concentrations (outlier excluded)): 1.16 ng/mL
concentration at 6 h ([3]; New Zealand White, rabbit, in vivo, single value defined as outlier): 65.2 ng/mL
Cmax [3, 8]: 5.64 ± 4.08 ng/mL
Tmax [3, 8]: 30 min
half-life [3, 8]: 1060 min
Plasma AUC ([3]; rabbit, in vivo, topical or ocular): 17.64 (ng/mL)*h
IC50 [5]: 1.3 nM
